Experimental data as given in ChEMBL document CHEMBL1124311, “Synthesis and antiallergy activity of 4-(diarylhydroxymethyl)-1-[3-(aryloxy)propyl]piperidines and structurally related compounds” (J Med Chem, 1989).

Experiments:
Type in all cases: functional, organism-based
Rattus norvegicus [1] = experiment: Oral antiallergy activity in the passive foot anaphylaxis (PFA) model of rat, at a dose of 3.16 (mg/kg); Activity equal to positive control group
Rattus norvegicus [2] = experiment: Oral antiallergy activity in the passive foot anaphylaxis (PFA) model of rat, at a dose of 1.0 (mg/kg); not significantly different from negative control group
Rattus norvegicus [3] = experiment: Oral antiallergy activity in the passive foot anaphylaxis (PFA) model of rat, at a dose of 10 (mg/kg); Activity greater than positive control group
Rattus norvegicus [4] = experiment: Oral antiallergy activity in the passive foot anaphylaxis (PFA) model of rat, at a dose of 0.5 (mg/kg); not significantly different from negative control group
Rattus norvegicus [5] = experiment: Oral antiallergy activity in the passive foot anaphylaxis (PFA) model of rat, at a dose of 1.0 (mg/kg); Activity between positive and negative control groups
Rattus norvegicus [6] = experiment: Oral antiallergy activity in the passive foot anaphylaxis (PFA) model of rat, at a dose of 3.16 (mg/kg); Activity between positive and negative control groups
Rattus norvegicus [7] = experiment: Oral antiallergy activity in the passive foot anaphylaxis (PFA) model of rat, at a dose of 10 (mg/kg); Activity equal to positive control group
Rattus norvegicus [8] = experiment: Oral antiallergy activity in the passive foot anaphylaxis (PFA) model of rat, at a dose of 3.16 (mg/kg); not significantly different from negative control group
Rattus norvegicus [9] = experiment: Oral antiallergy activity in the passive foot anaphylaxis (PFA) model of rat, at a dose of 10 (mg/kg); Activity between positive and negative control groups

For `CCOC(=O)Nc1ccc(OCCCN2CCC(C(O)(c3ccc(F)cc3)c3ccc(F)cc3)CC2)cc1`, the PFA (Rattus norvegicus [1]) was “Activity equal to positive control group”, the PFA (Rattus norvegicus [2]) was “Activity equal to positive control group” and the PFA (Rattus norvegicus [3]) was “Activity equal to positive control group”.

With `NC(=O)c1ccc(OCCCN2CCC(C(O)(c3ccc(F)cc3)c3ccc(F)cc3)CC2)cc1` the PFA (Rattus norvegicus [4]) was “Activity between positive and negative control groups”, the PFA (Rattus norvegicus [5]) was “Activity between positive and negative control groups” and the PFA (Rattus norvegicus [6]) was “Activity between positive and negative control groups”. The PFA (Rattus norvegicus [3]) was “Activity between positive and negative control groups”.

With `CNC(=O)Nc1ccc(OCCCN2CCC(C(O)(c3ccc(F)cc3)c3ccc(F)cc3)CC2)cc1` the PFA (Rattus norvegicus [7]) was “Activity equal to positive control group” and the PFA (Rattus norvegicus [8]) was “Activity equal to positive control group”.

For `CCC(=O)c1ccc(OCCCN2CCC(C(O)(c3ccc(F)cc3)c3ccc(F)cc3)CC2)cc1`, the PFA (Rattus norvegicus [1]) was “Activity equal to positive control group”, the PFA (Rattus norvegicus [2]) was “Activity equal to positive control group” and the PFA (Rattus norvegicus [3]) was “Activity equal to positive control group”.

For `COc1cc(C(C)=O)ccc1OCCCN1CCC(=C(c2ccccc2)c2ccccc2)CC1`, the PFA (Rattus norvegicus [1]) was “Activity equal to positive control group”.

With `COc1ccc(OCCCN2CCC(C(O)(c3ccc(F)cc3)c3ccc(F)cc3)CC2)cc1` the PFA (Rattus norvegicus [7]) was “Activity equal to positive control group” and the PFA (Rattus norvegicus [8]) was “Activity equal to positive control group”.

`CC(=O)Nc1ccc(OCCCN2CCC(C(O)(c3ccc(F)cc3)c3ccc(F)cc3)CC2)cc1` was tested, and the PFA (Rattus norvegicus [1]) was “Activity equal to positive control group”, the PFA (Rattus norvegicus [2]) was “Activity equal to positive control group” and the PFA (Rattus norvegicus [3]) was “Activity equal to positive control group”.

For `CC(C)Oc1ccccc1OCCCN1CCC(C(O)(c2ccc(F)cc2)c2ccc(F)cc2)CC1`, the PFA (Rattus norvegicus [5]) was “Activity between positive and negative control groups” and the PFA (Rattus norvegicus [6]) was “Activity between positive and negative control groups”.

`O=C(O)CCc1ccc(OCCCN2CCC(C(O)(c3ccc(F)cc3)c3ccc(F)cc3)CC2)cc1` was tested, and the PFA (Rattus norvegicus [4]) was “Activity between positive and negative control groups”, the PFA (Rattus norvegicus [5]) was “Activity between positive and negative control groups” and the PFA (Rattus norvegicus [1]) was “Activity between positive and negative control groups”. The PFA (Rattus norvegicus [3]) was “Activity between positive and negative control groups”.

`COc1cc(C(C)=O)ccc1OCCCN1CCC(C(O)(c2ccccc2)c2ccc(F)cc2)CC1` (stereo not drawn) was tested, and the PFA (Rattus norvegicus [1]) was “Activity equal to positive control group”.

In the case of `Cc1cccc(OCCCN2CCC(C(O)(c3ccc(F)cc3)c3ccc(F)cc3)CC2)c1`, the PFA (Rattus norvegicus [2]) is reported as “Activity between positive and negative control groups”, the PFA (Rattus norvegicus [6]) is reported as “Activity between positive and negative control groups” and the PFA (Rattus norvegicus [9]) is reported as “Activity between positive and negative control groups”.

For `CCOC(=O)c1ccccc1OCCCN1CCC(C(O)(c2ccc(F)cc2)c2ccc(F)cc2)CC1`, the PFA (Rattus norvegicus [2]) was “Activity between positive and negative control groups”, the PFA (Rattus norvegicus [6]) was “Activity between positive and negative control groups” and the PFA (Rattus norvegicus [9]) was “Activity between positive and negative control groups”.

For `CC(C)(C)C(=O)c1ccc(OCCCN2CCC(C(O)(c3ccc(F)cc3)c3ccc(F)cc3)CC2)cc1`, the PFA (Rattus norvegicus [7]) was “Activity equal to positive control group” and the PFA (Rattus norvegicus [8]) was “Activity equal to positive control group”.

`CCNCCc1ccc(CN(CC)c2cc(OC)ccc2[C@@H]2CCc3cc(O)ccc3C2)cc1` was tested, and the PFA (Rattus norvegicus [2]) was “Activity between positive and negative control groups” and the PFA (Rattus norvegicus [6]) was “Activity between positive and negative control groups”.

`COC(=O)CCc1ccc(OCCCN2CCC(C(O)(c3ccc(F)cc3)c3ccc(F)cc3)CC2)cc1` was tested, and the PFA (Rattus norvegicus [4]) was “Activity between positive and negative control groups”, the PFA (Rattus norvegicus [5]) was “Activity between positive and negative control groups” and the PFA (Rattus norvegicus [6]) was “Activity between positive and negative control groups”. For the same compound, the PFA (Rattus norvegicus [3]) was “Activity between positive and negative control groups”.

For `CS(=O)(=O)c1ccc(OCCCN2CCC(C(O)(c3ccc(F)cc3)c3ccc(F)cc3)CC2)cc1`, the PFA (Rattus norvegicus [7]) was “Activity equal to positive control group” and the PFA (Rattus norvegicus [8]) was “Activity equal to positive control group”.

With `CC(=O)c1ccc(OCCCN2CCC(C(O)(c3ccc(F)cc3)c3ccc(F)cc3)CC2)cc1` the PFA (Rattus norvegicus [1]) was “Activity equal to positive control group”, the PFA (Rattus norvegicus [2]) was “Activity equal to positive control group” and the PFA (Rattus norvegicus [3]) was “Activity equal to positive control group”.

For `COc1cc(C(C)=O)ccc1OCCCCN1CCC(C(O)(c2ccc(F)cc2)c2ccc(F)cc2)CC1`, the PFA (Rattus norvegicus [1]) was “Activity equal to positive control group”.

`CC(C)C(=O)c1ccc(OCCCN2CCC(C(O)(c3ccc(F)cc3)c3ccc(F)cc3)CC2)cc1` was tested, and the PFA (Rattus norvegicus [8]) was “Activity greater than positive control group” and the PFA (Rattus norvegicus [3]) was “Activity greater than positive control group”.

In the case of `CSc1ccc(OCCCN2CCC(C(O)(c3ccc(F)cc3)c3ccc(F)cc3)CC2)cc1`, the PFA (Rattus norvegicus [7]) is reported as “Activity equal to positive control group” and the PFA (Rattus norvegicus [8]) is reported as “Activity equal to positive control group”.

`Oc1ccccc1OCCCN1CCC(C(O)(c2ccc(F)cc2)c2ccc(F)cc2)CC1` was tested, and the PFA (Rattus norvegicus [7]) was “Activity equal to positive control group” and the PFA (Rattus norvegicus [8]) was “Activity equal to positive control group”.

With `CCc1ccc(OCCCN2CCC(C(O)(c3ccc(F)cc3)c3ccc(F)cc3)CC2)cc1` the PFA (Rattus norvegicus [7]) was “Activity between positive and negative control groups”, the PFA (Rattus norvegicus [2]) was “Activity between positive and negative control groups” and the PFA (Rattus norvegicus [6]) was “Activity between positive and negative control groups”.

In the case of `Nc1ccc(OCCCN2CCC(C(O)(c3ccc(F)cc3)c3ccc(F)cc3)CC2)cc1`, the PFA (Rattus norvegicus [2]) is reported as “Activity between positive and negative control groups”, the PFA (Rattus norvegicus [6]) is reported as “Activity between positive and negative control groups” and the PFA (Rattus norvegicus [3]) is reported as “Activity between positive and negative control groups”.

In the case of `CN(C)C(=O)c1ccc(OCCCN2CCC(C(O)(c3ccc(F)cc3)c3ccc(F)cc3)CC2)cc1`, the PFA (Rattus norvegicus [2]) is reported as “Activity between positive and negative control groups”, the PFA (Rattus norvegicus [6]) is reported as “Activity between positive and negative control groups” and the PFA (Rattus norvegicus [3]) is reported as “Activity between positive and negative control groups”.

In the case of `O=C(O)Cc1ccc(OCCCN2CCC(C(O)(c3ccc(F)cc3)c3ccc(F)cc3)CC2)cc1`, the PFA (Rattus norvegicus [7]) is reported as “Activity between positive and negative control groups”, the PFA (Rattus norvegicus [2]) is reported as “Activity between positive and negative control groups” and the PFA (Rattus norvegicus [6]) is reported as “Activity between positive and negative control groups”.

`CC(=O)Cc1ccc(OCCCN2CCC(C(O)(c3ccc(F)cc3)c3ccc(F)cc3)CC2)cc1` was tested, and the PFA (Rattus norvegicus [8]) was “Activity greater than positive control group” and the PFA (Rattus norvegicus [3]) was “Activity greater than positive control group”.

For `COc1ccccc1OCCCN1CCC(C(O)(c2ccc(F)cc2)c2ccc(F)cc2)CC1`, the PFA (Rattus norvegicus [5]) was “Activity between positive and negative control groups” and the PFA (Rattus norvegicus [6]) was “Activity between positive and negative control groups”.

For `OC(c1ccc(F)cc1)(c1ccc(F)cc1)C1CCN(CCCOc2ccccc2)CC1`, the PFA (Rattus norvegicus [1]) was “Activity equal to positive control group”.
